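Exposure lasted 48 hours, with cells grown in 96-well plates and compounds tested at five concentrations. Here, GI50 denotes the concentration required for 50% inhibition of growth.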 Activity calls are given as the source filed them. Cut-off read from the data, not from the text of the source: active = GI50 up to about 1.1 µM and inactive = higher.

Holding throughout (test): NCI-60 cell line screen, 48 h
Experiment [1] deals with NCI-H226.
In experiment [2] the test system is OVCAR-3.
Experiment [3] deals with HCT-116.
Experiment [4] deals with ACHN.
Experiment [5] deals with Malme-3M.
In experiment [6] the test system is A498.
The subject of experiment [7] is RPMI-8226.
In experiment [8] the test system is HCC 2998.
Experiment [9] has as its system RXF 393.
The subject of experiment [10] is SK-OV-3.
Experiment [11] relates to KM12.
The test system of experiment [12] is SW-620.
The test system of experiment [13] is SF-295.
In experiment [14] the test system is HOP-62.
Experiment [15] concerns SK-MEL-28.
Experiment [16] has as its system M14.
Experiment [17] has as its system SK-MEL-5.
The test system of experiment [18] is 786-0.
Experiment [19] has as its system OVCAR-8.

On to `Nc1nnc2n1C(=O)C(C1(C3=Nc4nnc(N)n4C3=O)Cc3ccccc3C1=O)=N2`, for which the GI50 in experiment [1] was > 100 µM (inactive); in experiment [2] it was > 100 µM (inactive); in [3], > 100 µM (inactive); in [4], > 100 µM (inactive); in [5], > 100 µM (inactive); in experiment [6] it was 0.0205 µM (active). Moreover, the GI50 in experiment [7], in [8], in experiment [9], in [10], in experiment [11] and in experiment [12] was > 100 µM (inactive) throughout. Moreover, the GI50 in [13], in experiment [14], in [15], in [16], in experiment [17] and in experiment [18] was > 100 µM (inactive) throughout. In addition, the GI50 in experiment [19] was > 100 µM (inactive).
Turning to `C=CC1(NS(=O)(=O)c2ccc(C)cc2)CCC(C(C)(C)C)CC1` (stereo not drawn), the GI50 is > 100 µM (inactive) in experiment [1]; 21.6 µM (inactive) in experiment [2]; > 100 µM (inactive) in experiment [3]; 65.3 µM (inactive) in experiment [4]; 82.2 µM (inactive) in [5]; > 100 µM (inactive) in experiment [6]. In addition, the GI50 in experiment [7] is 17.5 µM (inactive); in [8], > 100 µM (inactive); in experiment [9], 8.97 µM (inactive); in experiment [10], 34.4 µM (inactive); in experiment [11] it was > 100 µM (inactive); in [12], > 100 µM (inactive). Also, the GI50 was 57.7 µM (inactive) in experiment [14]; > 100 µM (inactive) in experiment [15]; 98.6 µM (inactive) in [16]; > 100 µM (inactive) in experiment [17]; 46.8 µM (inactive) in experiment [18]; 52.8 µM (inactive) in experiment [19].
With `CN(CCCCN)c1ccc2c(=O)[nH][nH]c(=O)c2c1`, the GI50 in [1], in experiment [2], in experiment [3], in experiment [4], in experiment [5] and in experiment [6] was > 100 µM (inactive) throughout. In addition, the GI50 in experiment [7], in experiment [8], in experiment [9], in [10], in experiment [11] and in experiment [12] was > 100 µM (inactive) throughout. Further, the GI50 in experiment [13] is > 100 µM (inactive); in experiment [14], > 100 µM (inactive); in experiment [15], > 100 µM (inactive); in [16], 13.5 µM (inactive); in [17], > 10 µM (inactive); in experiment [18], > 100 µM (inactive). Besides, the GI50 in experiment [19] is > 10 µM (inactive).
As for `COc1cc(C)c(O)c(C(=O)O)c1`, the GI50 in experiment [1], in experiment [2], in [3], in [4], in experiment [5] and in [6] was > 100 µM (inactive) throughout. Moreover, the GI50 in experiment [8], in experiment [9], in [10], in [11], in [12] and in [13] was > 100 µM (inactive) in each case. Moreover, the GI50 in experiment [14], in experiment [15], in experiment [16], in experiment [17], in experiment [18] and in experiment [19] was > 100 µM (inactive) in each case.
`O=C1c2ccccc2C(=O)c2c1cc(S(=O)(=O)O)c(O)c2O` [Alizarin Red S]: the GI50 in experiment [1], in [2], in experiment [3], in [4], in experiment [6] and in experiment [7] was > 100 µM (inactive) in each case. Further, the GI50 in [8], in experiment [9], in experiment [10], in experiment [11], in experiment [12] and in experiment [13] was > 100 µM (inactive) each time. Moreover, the GI50 in experiment [14], in experiment [15], in [16], in experiment [18] and in experiment [19] was > 100 µM (inactive) in each case.
Regarding `COc1cc2c(cc1O)[C@@]1(Cc3ccc(OC)c(OC)c3)CCC(=O)N1CC2`, the GI50 in experiment [1] was > 100 µM (inactive); in [2], > 100 µM (inactive); in [3], > 100 µM (inactive); in experiment [4] it was > 100 µM (inactive); in [5], 68.4 µM (inactive); in [6] it was > 100 µM (inactive). In addition, the GI50 in [7] is > 100 µM (inactive); in [8] it was > 100 µM (inactive); in experiment [9], > 100 µM (inactive); in [11] it was > 100 µM (inactive); in experiment [12] it was > 10 µM (inactive); in experiment [13], > 100 µM (inactive). Moreover, the GI50 in experiment [14], in [15], in [16], in [17], in experiment [18] and in [19] was > 100 µM (inactive) throughout.
`CC1(C)C(c2ccccc2)=NN(O)c2ccccc21`: the GI50 in experiment [1], in [2], in [3], in experiment [5], in experiment [6] and in experiment [7] was > 100 µM (inactive) each time. Also, the GI50 in experiment [8], in experiment [9], in experiment [10], in experiment [11], in experiment [12] and in experiment [13] was > 100 µM (inactive) in each case. Moreover, the GI50 in experiment [14], in experiment [15], in experiment [16], in experiment [17], in [18] and in experiment [19] was > 100 µM (inactive) each time.
Consider `COC(=O)C(C#N)=C1c2ccccc2Oc2ccccc21`, for which the GI50 in experiment [1] is 65.5 µM (inactive); in experiment [2], 21.5 µM (inactive); in experiment [4], 66.7 µM (inactive); in experiment [5], 93.3 µM (inactive); in experiment [6], > 100 µM (inactive); in [7] it was 18.8 µM (inactive). For the same compound, the GI50 is 98.9 µM (inactive) in experiment [8]; 38.5 µM (inactive) in [9]; 42.1 µM (inactive) in [10]; > 100 µM (inactive) in [11]; 43.2 µM (inactive) in [12]; 46.5 µM (inactive) in [13]. In addition, the GI50 was > 100 µM (inactive) in experiment [14]; 56.6 µM (inactive) in [15]; 53.8 µM (inactive) in experiment [16]; 33.9 µM (inactive) in experiment [17]; 63.7 µM (inactive) in experiment [18]; 43.4 µM (inactive) in experiment [19].
For the compound `NC(CCCNc1cccc(O)c1)C(=O)O` (stereo not drawn), the GI50 in [1], in experiment [2], in [3], in experiment [4], in experiment [5] and in [6] was > 100 µM (inactive) in each case. Further, the GI50 in experiment [7], in experiment [9], in experiment [10], in experiment [12], in experiment [13] and in experiment [14] was > 100 µM (inactive) in each case. Moreover, the GI50 in experiment [15], in experiment [16], in [17], in [18] and in experiment [19] was > 100 µM (inactive) throughout.
In the case of `O=C(NC(=S)NC(=O)c1cc(O)c(O)c(O)c1)c1cc(O)c(O)c(O)c1`, the GI50 was 39.1 µM (inactive) in experiment [1]; 20.4 µM (inactive) in experiment [3]; 23 µM (inactive) in experiment [4]; > 100 µM (inactive) in experiment [6]; 48.3 µM (inactive) in experiment [7]; 31 µM (inactive) in [8]. The GI50 is 18 µM (inactive) in experiment [9]; 23.2 µM (inactive) in [10]; 24.5 µM (inactive) in [11]; 27.7 µM (inactive) in [12]; 17.1 µM (inactive) in experiment [13]; 27.8 µM (inactive) in experiment [15]. For the same compound, the GI50 in experiment [16] is 32.1 µM (inactive); in [17], 24.5 µM (inactive); in experiment [18] it was 20 µM (inactive); in experiment [19], 20.7 µM (inactive).
In the case of `COc1cccc2c1C(=O)c1c(O)c3c(c(O)c1C2=O)C[C@@](O)(C(C)=O)C[C@@H]3OC1CC([N+]([O-])(Cc2ccccc2)Cc2ccccc2)C(O)C(C)O1` (stereo partly drawn), the GI50 is 1.73 µM (inactive) in experiment [2]; 1.22 µM (inactive) in experiment [4]; 2.46 µM (inactive) in experiment [6]; 1.54 µM (inactive) in experiment [7]; 1.62 µM (inactive) in experiment [8]; 1.21 µM (inactive) in experiment [9]. Moreover, the GI50 in experiment [10] was 4.2 µM (inactive); in [11], 1.48 µM (inactive); in experiment [12] it was 1 µM (active); in [13] it was 1.19 µM (inactive); in experiment [14], 1.56 µM (inactive); in experiment [16], 1.69 µM (inactive). For the same compound, the GI50 is 1.35 µM (inactive) in [17], 1.44 µM (inactive) in [18] and 0.774 µM (active) in experiment [19].
